Assay results taken from patent US12428406B2 (PMV Pharmaceuticals, Inc., priority 2019, dated 2025).

Target: T1, p53 Y220C (Homo sapiens, UniProt P04637, Y220C)
T1 construct: The recombinant protein was a truncation mutant containing only amino acids 94-312 of p53; made in house; host or cells: E. coli
Assay: In vitro DNA binding activity assay (HTRF / TR-FRET): stabilization of p53 Y220C and increase of its DNA binding activity
Format: biochemical
Conditions: recombinant His-tagged p53 Y220C DNA binding domain (aa 94-312), biotin-labeled consensus DNA, incubated at 27° C. or 29° C. for 60 min
Method in brief: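 Homogeneous time-resolved fluorescence with E. coli-derived p53 Y220C and biotinylated consensus DNA. Room-temperature incubations of 15 and 20 min precede reading. SC150 denotes the compound concentration required for 50% increased DNA binding.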

T1 sequence (P04637 94-312, change not shown): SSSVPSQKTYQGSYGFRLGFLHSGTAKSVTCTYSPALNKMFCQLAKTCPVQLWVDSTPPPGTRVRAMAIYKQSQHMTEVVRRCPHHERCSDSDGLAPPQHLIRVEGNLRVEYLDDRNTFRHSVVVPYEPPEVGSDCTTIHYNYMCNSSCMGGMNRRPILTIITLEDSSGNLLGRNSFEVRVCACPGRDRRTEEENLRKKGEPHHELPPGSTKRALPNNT

SC150 (concentration of the compound required to increase the DNA binding activity by 50%) | Compound
+ (+ = 0 μM ≤ SC150 < 0.05 μM) | CN1CC[C@H](Nc2cccc3c2cc(C#CCNc2ccc(S(C)(=O)=O)cc2OCF)n3CC(F)(F)F)[C@H](F)C1 [Compound 841A]
+ (+ = 0 μM ≤ SC150 < 0.05 μM) | CCOc1cc(S(C)(=O)=O)ccc1NCC#Cc1cc2c(N[C@@H]3CCN(C)C[C@@H]3F)cccc2n1CC(F)(F)F [Compound 843A]
+ (+ = 0 μM ≤ SC150 < 0.05 μM) | CCOc1cc(S(C)(=O)=O)ccc1NCC#Cc1cc2c(N[C@H]3CCN(C)C[C@H]3F)cccc2n1CC(F)(F)F [Compound 844A]
+ (+ = 0 μM ≤ SC150 < 0.05 μM) | COc1cc(S(N)(=O)=O)ccc1NCC#Cc1cc2c(N[C@@H]3CCNC[C@@H]3F)cccc2n1CC(F)(F)F [Compound 845A]
+ (+ = 0 μM ≤ SC150 < 0.05 μM) | COc1cc(S(N)(=O)=O)ccc1NCC#Cc1cc2c(N[C@H]3CCNC[C@H]3F)cccc2n1CC(F)(F)F [Compound 846A]
+ (+ = 0 μM ≤ SC150 < 0.05 μM) | CNC(=O)c1ccc(NCC#Cc2cc3c(N[C@H]4CCNC[C@H]4F)cccc3n2CC(F)(F)F)c(OC)c1 [Compound 851A]
+ (+ = 0 μM ≤ SC150 < 0.05 μM) | COc1cc(C(=O)O)ccc1NCC#Cc1cc2c(N[C@H]3CCNC[C@H]3F)cccc2n1CC(F)(F)F [Compound 852A]
+ (+ = 0 μM ≤ SC150 < 0.05 μM) | COc1cc(S(C)(=O)=O)ccc1NCC#Cc1cc2c(N[C@@H]3CCN(CCO)C[C@@H]3F)cccc2n1CC(F)(F)F [Compound 853A, 2-[(3S,4R)-3-fluoro-4-[(2-{3-[(4-methanesulfonyl-2-methoxyphenyl)amino]prop-1-yn-1-yl}-1-(2,2,2-trifluoroethyl)-1H-indol-4-yl)amino]piperidin-1-yl]ethan-1-ol]
+ (+ = 0 μM ≤ SC150 < 0.05 μM) | COc1cc(S(C)(=O)=O)ccc1NCC#Cc1cc2c(N[C@@H]3CCN(C(=O)CN(C)C)C[C@@H]3F)cccc2n1CC(F)(F)F [Compound 855A, 2-(dimethylamino)-1-[(3S,4R)-3-fluoro-4-[(2-{3-[(4-methanesulfonyl-2-methoxyphenyl)amino]prop-1-yn-1-yl}-1-(2,2,2-trifluoroethyl)-1H-indol-4-yl)amino]piperidin-1-yl]ethan-1-one]
+ (+ = 0 μM ≤ SC150 < 0.05 μM) | COc1cc(S(C)(=O)=O)ccc1NCC#Cc1cc2c(N[C@H]3CCN(C(=O)CN(C)C)C[C@H]3F)cccc2n1CC(F)(F)F [Compound 856A, 2-(dimethylamino)-1-[(3R,4S)-3-fluoro-4-[(2-{3-[(4-methanesulfonyl-2-methoxyphenyl)amino]prop-1-yn-1-yl}-1-(2,2,2-trifluoroethyl)-1H-indol-4-yl)amino]piperidin-1-yl]ethan-1-one]
+ (+ = 0 μM ≤ SC150 < 0.05 μM) | CNC(=O)c1ccc(NCC#Cc2cc3c(N[C@@H]4CCNC[C@@H]4F)cccc3n2CC(F)(F)F)c(OC)c1 [Compound 857A]
+ (+ = 0 μM ≤ SC150 < 0.05 μM) | COCCN1CC[C@H](Nc2cccc3c2cc(C#CCNc2ccc(S(C)(=O)=O)cc2OC)n3CC(F)(F)F)[C@H](F)C1 [Compound 860A, N-[(3R,4S)-3-fluoro-1-(2-methoxyethyl)piperidin-4-yl]-2-{3-[(4-methanesulfonyl-2-methoxyphenyl)amino]prop-1-yn-1-yl}-1-(2,2,2-trifluoroethyl)-1H-indol-4-amine]
+ (+ = 0 μM ≤ SC150 < 0.05 μM) | CCC(=O)N1CC[C@H](Nc2cccc3c2cc(C#CCNc2ccc(S(C)(=O)=O)cc2OC)n3CC(F)(F)F)[C@H](F)C1 [Compound 865A, 1-[(3R,4S)-3-fluoro-4-[(2-{3-[(4-methanesulfonyl-2-methoxyphenyl)amino]prop-1-yn-1-yl}-1-(2,2,2-trifluoroethyl)-1H-indol-4-yl)amino]piperidin-1-yl]propan-1-one]

The remaining lines, values behind:

Compound | SC150 (concentration of the compound required to increase the DNA binding activity by 50%)
CCOC(=O)c1ccc(NCC#Cc2cc3c(N[C@@H]4CCN(C)C[C@@H]4F)cccc3n2CC(F)(F)F)c(OC)c1 [Compound 839A, Ethyl 4-((3-(4-(((3S,4R)-3-fluoro-1-methylpiperidin-4-yl)amino)-1-(2,2,2-trifluoroethyl)-1H-indol-2-yl)prop-2-yn-1-yl)amino)-3-methoxybenzoate] | + (+ = 0 μM ≤ SC150 < 0.05 μM)
CCOC(=O)c1ccc(NCC#Cc2cc3c(N[C@H]4CCN(C)C[C@H]4F)cccc3n2CC(F)(F)F)c(OC)c1 [Compound 840A, ethyl 4-((3-(4-(((3R,4S)-3-fluoro-1-methylpiperidin-4-yl)amino)-1-(2,2,2-trifluoroethyl)-1H-indol-2-yl)prop-2-yn-1-yl)amino)-3-methoxybenzoate] | + (+ = 0 μM ≤ SC150 < 0.05 μM)
CN1CC[C@@H](Nc2cccc3c2cc(C#CCNc2ccc(S(C)(=O)=O)cc2OCF)n3CC(F)(F)F)[C@@H](F)C1 [Compound 842A] | + (+ = 0 μM ≤ SC150 < 0.05 μM)
COc1cc(S(C)(=O)=O)ccc1NCC#Cc1cc2c(N[C@H]3CCNC[C@H]3F)cccc2n1CC(F)(F)F [Compound 848A] | + (+ = 0 μM ≤ SC150 < 0.05 μM)
COc1cc(C(N)=O)ccc1NCC#Cc1cc2c(N[C@@H]3CCNC[C@@H]3F)cccc2n1CC(F)(F)F [Compound 849A, 4-{[3-(4-{[(3S,4R)-3-fluoropiperidin-4-yl]amino}-1-(2,2,2-trifluoroethyl)-1H-indol-2-yl)prop-2-yn-1-yl]amino}-3-methoxybenzamide] | + (+ = 0 μM ≤ SC150 < 0.05 μM)
COc1cc(S(C)(=O)=O)ccc1NCC#Cc1cc2c(N[C@H]3CCN(CCO)C[C@H]3F)cccc2n1CC(F)(F)F [Compound 854A, 2-[(3R,4S)-3-fluoro-4-[(2-{3-[(4-methanesulfonyl-2-methoxyphenyl)amino]prop-1-yn-1-yl}-1-(2,2,2-trifluoroethyl)-1H-indol-4-yl)amino]piperidin-1-yl]ethan-1-ol] | + (+ = 0 μM ≤ SC150 < 0.05 μM)
COc1cc(C(=O)O)ccc1NCC#Cc1cc2c(N[C@@H]3CCNC[C@@H]3F)cccc2n1CC(F)(F)F [Compound 858A] | + (+ = 0 μM ≤ SC150 < 0.05 μM)
COCCN1CC[C@@H](Nc2cccc3c2cc(C#CCNc2ccc(S(C)(=O)=O)cc2OC)n3CC(F)(F)F)[C@@H](F)C1 [Compound 859A, N-[(3S,4R)-3-fluoro-1-(2-methoxyethyl)piperidin-4-yl]-2-{3-[(4-methanesulfonyl-2-methoxyphenyl)amino]prop-1-yn-1-yl}-1-(2,2,2-trifluoroethyl)-1H-indol-4-amine] | + (+ = 0 μM ≤ SC150 < 0.05 μM)
COc1cc(S(C)(=O)=O)ccc1NCC#Cc1cc2c(N[C@@H]3CCN(C(C)=O)C[C@@H]3F)cccc2n1CC(F)(F)F [Compound 862A, 1-[(3S,4R)-3-fluoro-4-[(2-{3-[(4-methanesulfonyl-2-methoxyphenyl)amino]prop-1-yn-1-yl}-1-(2,2,2-trifluoroethyl)-1H-indol-4-yl)amino]piperidin-1-yl]ethan-1-one] | + (+ = 0 μM ≤ SC150 < 0.05 μM)
COc1cc(S(C)(=O)=O)ccc1NCC#Cc1cc2c(N[C@H]3CCN(C(C)=O)C[C@H]3F)cccc2n1CC(F)(F)F [Compound 863A, 1-[(3R,4S)-3-fluoro-4-[(2-{3-[(4-methanesulfonyl-2-methoxyphenyl)amino]prop-1-yn-1-yl}-1-(2,2,2-trifluoroethyl)-1H-indol-4-yl)amino]piperidin-1-yl]ethan-1-one] | + (+ = 0 μM ≤ SC150 < 0.05 μM)
CCC(=O)N1CC[C@@H](Nc2cccc3c2cc(C#CCNc2ccc(S(C)(=O)=O)cc2OC)n3CC(F)(F)F)[C@@H](F)C1 [Compound 864A, 1-[(3S,4R)-3-fluoro-4-[(2-{3-[(4-methanesulfonyl-2-methoxyphenyl)amino]prop-1-yn-1-yl}-1-(2,2,2-trifluoroethyl)-1H-indol-4-yl)amino]piperidin-1-yl]propan-1-one] | + (+ = 0 μM ≤ SC150 < 0.05 μM)
COCC(=O)N1CC[C@@H](Nc2cccc3c2cc(C#CCNc2ccc(S(C)(=O)=O)cc2OC)n3CC(F)(F)F)[C@@H](F)C1 [Compound 866A, 1-[(3S,4R)-3-fluoro-4-[(2-{3-[(4-methanesulfonyl-2-methoxyphenyl)amino]prop-1-yn-1-yl}-1-(2,2,2-trifluoroethyl)-1H-indol-4-yl)amino]piperidin-1-yl]-2-methoxyethan-1-one] | + (+ = 0 μM ≤ SC150 < 0.05 μM)
COCC(=O)N1CC[C@H](Nc2cccc3c2cc(C#CCNc2ccc(S(C)(=O)=O)cc2OC)n3CC(F)(F)F)[C@H](F)C1 [Compound 867A, 1-[(3R,4S)-3-fluoro-4-[(2-{3-[(4-methanesulfonyl-2-methoxyphenyl)amino]prop-1-yn-1-yl}-1-(2,2,2-trifluoroethyl)-1H-indol-4-yl)amino]piperidin-1-yl]-2-methoxyethan-1-one] | + (+ = 0 μM ≤ SC150 < 0.05 μM)
COc1cc(C(N)=O)ccc1NCC#Cc1cc2c(N[C@H]3CCNC[C@H]3F)cccc2n1CC(F)(F)F [Compound 868A, 4-{[3-(4-{[(3R,4S)-3-fluoropiperidin-4-yl]amino}-1-(2,2,2-trifluoroethyl)-1H-indol-2-yl)prop-2-yn-1-yl]amino}-3-methoxybenzamide] | + (+ = 0 μM ≤ SC150 < 0.05 μM)
